Patent publication US20210177952A1, “METHOD AND COMPOSITION FOR STIMULATING IMMUNE RESPONSE” (BeyondSpring Pharmaceuticals, Inc., priority 2018, published 2021)
Read-outs that look alike come from different tables or passages of the source.

Legend:
[1] = human; cited from earlier work
[2] = tested on: CD4^+ T cells combined with CD14^+ dendritic cells; test: Allogeneic mixed lymphocyte reaction (MLR), IL-2 and IFN-γ by ELISA; type: cell-based, Human
Experimental: Human peripheral CD14 positive monocytes were collected from a human donor and, subsequently, differentiated and matured into CD14^+ dendritic cells (DCs). Human CD4 positive T-cells were separately collected from another human donor. The collected CD4^+ T cells were combined with the CD14^+ DCs in a mixed lymphocyte reaction (MLR). In this Example, a tubulin binding agent was added, respectively, in the step of monocyte differentiation, in the step of dendritic cell maturation, and in the step of T-cell activation by combining the CD14^+ DCs with the CD4^+ T cells.
ISOLATION OF HUMAN CD4^+ T CELLS FROM ANOTHER DONOR'S PBMCs: PBMC cells were obtained from another human donor according to (1a)-(1d) above. CD4^+ T-cells were then isolated from these PBMCs according to steps (3a)-(3k) as follows: (3a) The number of the PBMC cells was determined. (3b) The cell suspension was centrifuged at 300×g for 10 min. The supernatant was then completely aspirated. (3c) The cell pellet was re-suspended in 40 μL of FACS buffer per 10^7 total cells. (3d) 10 μL of CD4^+ T Cell Biotin-Antibody Cocktail was added per 10^7 total cells. (3e) The mixture was well mixed and incubated for 5 min in refrigerator (at 2-8° C.). (3f) 30 μL of FACS buffer was added per 10^7 total cells, and 20 μL of CD4^+ T-Cell MicroBead Cocktail was added per 10^7 total cells. (3g) The mixture was well mixed and incubated for 10 min in refrigerator (at 2 to 8° C.). (3h) A column is placed in magnetic field of a suitable MACS Separator. (3i) The column is prepared by rinsing with 3 mL of buffer. (3j) The cell suspension was applied onto the column. The flow-through containing unlabeled cells, representing the enriched CD4^+ T cells, were collected. […]
ALLOGENEIC ACTIVATION OF T CELLS ASSESSED BY MLR ASSAY: Allogeneic Mixed Lymphocyte Reaction (MLR) assays were performed according to steps (4a)-(4d) as follows: (4a) The test article (e.g., plinabulin and other tubulin binding agents) were each diluted in RPMI 1640 medium according to one of Tables 7-9 and, subsequently, added at 50 μL/well in appropriate wells. […]

[3] = type: in vivo, Mouse, C57BL6; details: 15 mg/kg IP BID, subgroup I group 3, three animals
Experimental: Detailed Clinical Observations: Scheduled detailed clinical observations were not conducted on this study. Unscheduled clinical observations were made on mice flagged by trained personnel during daily moribundity/morbidity checks for any reason.
The remaining subgroups II-V, group 3 animals were dosed at 10 mg/kg (indicated as “*” in Tables 3-4 above). The experimental observations described below in this Example were focused on the lower dose (10-mg/kg) mice.

[4] = mice; cited from earlier work

Structure (SMILES): CC(C)(C)c1[nH]cnc1/C=c1\[nH]c(=O)/c(=C/c2ccccc2)[nH]c1=O [Plinabulin, (3Z,6Z)-3-Benzylidene-6-{[5-(2-methyl-2-propanyl)-1H-imidazol-4-yl]methylene}-2,5-piperazinedione]
- plasma elimination half-life [1]: 5 to 6 h
- IL2 secretion in MLR ([2]; CD14^+ monocytes treated at 1 or 3 μM during DC differentiation): decrease in IL2 secretion
- IL2 secretion in MLR ([2]; DCs treated at 1 or 3 μM during DC maturation): increase in IL2 secretion
- MLR induced IL-2 secretion ([2]; treatment at ≥100 nM began when mature DCs were combined with CD4 T-cells, compared with nivolumab at 2 mg/ml): significant increase in MLR induced IL-2 secretion, greater than that of nivolumab
- clinical observations within 1 day following test article administration [3]: decreased activity, irregular breathing, dehydration, and body cold to touch
- plasma elimination half-life [4]: 1.5 to 2 h
